Source: patent US9526766B2, “Potentiation of antibiotic treatment with a protein-lipid complex” (priority 2012, dated 2016)

How the values were obtained:
Staphylococcus aureus = test: MIC by broth microdilution, antibiotics with and without ALAFAC; assay type: cell-based; conditions: NRS 123; methicillin + ALAFAC; Ruthenium Red 30 μM, Amiloride 1 mM
Experimental: Methodology: Minimal inhibitory concentrations (MICs) were determined in 96-well microtiter plates using the microdilution method according to approved standards of the CLSI except that Todd-Hewitt medium supplemented with 0.5% yeast extract, which yields reproducible MIC results was used as the test medium for S. pneumoniae. For the remaining species Mueller-Hinton medium was used as indicated by the CLSI standard. Each well contained two-fold dilutions of antibiotic, was seeded with a final bacterial concentration of 10^5 CFU/mL, and was incubated for 18 h at 37° C. in a Synergy II microplate reader (Biotek, Winooski, Vt.) where the OD600 was recorded every 5 minutes to monitor bacterial growth. The MIC was defined as the lowest concentration of antimicrobial agent solution at which no increase in OD600 was detected.
In vitro susceptibility tests. Minimal inhibitory concentrations (MICs) were determined in 96-well microtiter plates using the microdilution method according to approved standards of the CLSI as described previously. However, rather than Mueller-Hinton broth, Tryptic soy broth (TSB) was used for susceptibility testing as it is the common media used for Staphylococcal growth, and as it has shown more consistent results for a variety of antimicrobials when tested against Staphylococci. […] A two-fold dilution series of antibiotics in triplicate and in the presence or absence of ALAFAC was prepared in 96 well microtiter plates, and each well was seeded with a final bacterial concentration of 10^5 CFU/mL, and was incubated for 24 h at 37° C. in a Synergy 2 microplate reader (Biotek, Winooski, Vt.) where the Optical Density at 600 nm (OD600) was recorded every 5 minutes to monitor bacterial growth. The MIC was defined as the lowest concentration of antimicrobial agent solution where no increase in OD600 was detected.

NRS 384 Staphylococci [1] = test: Intracellular pH measurement (BCECF-AM); assay type: cell-based, Staphylococcus aureus; conditions: ALAFAC 100 μg/mL (6 μM), RuR 30 μM, Amiloride 1 mM
Source text: Intracellular pH measurement. A reported protocol for intracellular pH (pHi) measurement was modified and optimized for S. aureus by testing the effect of various dye concentrations and staining times on the measured fluorescence of S. aureus isolate NRS 384 grown to mid-log phase. Cell samples were subjected to increasing concentrations of the membrane-permeant acetoxymehtyl (AM) ester derivative of the dual-excitation ratiometric pH indicator dye BCECF (2′,7′-bis-(2-carboxyethyl)-5-(and-6)-carboxyfluorescein), for 30 minutes at 30° C. Fluorescence was measured as a ratio of fluorescence at 530 nm with dual wavelength excitation at 490 and 440 nm and calibration curves were established for each independent experiment. After testing a number of loading concentrations we observed that the fluorescence ratios remains generally constant when concentrations above 20 μM was used. Therefore 25 μM BCECF-AM was used for all experiments. The optimized staining time, 30 minutes, was determined using the same criteria and was used for all experiments. After loading, the cells were washed twice in PBS by centrifugation and the resulting pellet was resuspended in PBS to the original volume and ALAFAC and ALAFAC/antibiotic combinations were added. CCCP was added as a positive control. CCCP is a lipophilic weak acid that is soluble in the lipid domain of the membrane in both the protonated and deprotonated form. This allows it to act as a protonophore causing an influx of H^+ into the cytoplasm, dissipating both the electrical potential and the H^+ gradient across the inner membrane. For each experiment calibration was performed where cells were resuspended in high [K^+] buffers at different pH values ranging from 6.5 to 8.0.

Streptococcus pneumoniae = test: Short-time kill assay on planktonic cultures; assay type: cell-based; conditions: D39, 1 hour, staurosporine 20 μM; for Effect of inhibitor on ALAFAC potentiation of gentamicin and penicillin G: Ruthenium Red 30 μM
Experimental: Methodology: In late logarithmic growth phase, the bacteria were harvested by centrifugation at 12,000×g for 10 minutes and resuspended in phosphate-buffered saline (PBS; […], […], […], pH 7.4). Appropriate dilutions of the bacteria were suspended in PBS and treated with indicated concentrations of ALAFAC and/or antibiotics for various times. The effect on bacterial viability was assessed by plating serial dilutions of bacterial sample on tryptic soy agar plates containing 5% sheep blood (viable counts) and determining viable colony forming units after overnight growth at 37° C.
Short-time kill assays. In late logarithmic growth phase, the bacteria were harvested by centrifugation at 12,000×g for 10 minutes and resuspended in phosphate-buffered saline (PBS; 30 mM Na2HPO4, 10 mM KH2PO4, […], pH 7.4). Appropriate concentrations of the bacteria (around 10^8 colony forming units per ml) were suspended in PBS and treated with indicated concentrations of ALAFAC and/or antibiotics for various times. The effect on bacterial viability was assessed by plating serial dilutions of bacterial sample on tryptic soy agar plates containing 5% sheep blood (viable counts) and determining viable CFUs after overnight growth at 37° C.

NRS 123 Staphylococci = test: Membrane potential, DiBAC4(3) fluorescence; assay type: cell-based, Staphylococcus aureus; conditions: Ruthenium Red, Amiloride
Experimental: Assessing membrane potential. Staphylococci grown to late log phase in TSB were pelleted by centrifugation at 2,400×g for 10 minutes and washed twice by resuspension in PBS. The bacterial pellet was resuspended in PBS to half of the original volume and energized with 50 mM glucose for 15 minutes at 37° C. To measure membrane potential of the staphylococcal membrane, 500 nM DiBAC4(3) (bis-(1,3-dibutylbarbituric acid) trimethine oxonol; Molecular Probes, Eugene, Oreg., USA) were added. […] The plate was then placed immediately into a pre-warmed (37° C.) Synergy 2 Multi-Mode Microplate Reader (BioTek) where fluorescence readings from DiBAC4(3) (485/20 nm excitation, 528/20 nm emission) were taken every minute for one hour. The difference in fluorescence intensity between the untreated control and the ALAFAC-treated sample was calculated for the “no inhibitor” samples and for the “inhibitor” samples using the values after 60 minutes. The fluorescence intensity difference for the “inhibitor” samples was then expressed as fold change of the intensity compared with the ALAFAC alone (“no inhibitor”) sample, providing the degree of depolarization compared to the “ALAFAC alone” sample.

NRS 384 Staphylococci [2] = test: Radioisotope 45Ca2+ transport assay; assay type: cell-based, Staphylococcus aureus; conditions: ALAFAC addition, Ruthenium Red 30 μM
Experimental: Radioisotope ^45Ca^2+ transport assays. Staphylococcus aureus was grown to log phase, washed three times and resuspended in 1×PBS containing 0.5 mM CaCl2 (CaPBS). No glucose was added in order to minimize the interference created by extrusion of Ca^2+ via ATPase pumps. ^45CaCl2 (PerkinElmer; Waltham, Mass., USA) was added to the cells at a final concentration of 2.5 μCi/mL, followed by inhibitor compound, with each addition given two minutes equilibration time. The untreated baseline sample was measured at this point. The sample was then divided, ALAFAC was added to one of the tubes, and ^45Ca^2+ uptake was measured at various intervals. For each sample, 100 μL was dispensed onto Millipore 0.3 μm PHWP filters (EMD Millipore; Billerica, Mass., USA) presoaked in CaPBS, and immediately washed with 9 mL of CaPBS via syringe filtration through Millipore Swinnex® filter holders. Filters were placed in scintillation vials with 5 mL of scintillation fluid, and CPMs were detected on a Wallac 1409 liquid scintillation counter (Wallac Oy, Turku, Finland). The results were expressed as ΔCPM that was calculated for each sample at the indicated time points as the difference between ALAFAC-treated and untreated samples.

For `N.N.N.N.N.N.N.N.N.N.N.N.N.N.[Cl-].[Cl-].[Cl-].[Cl-].[Cl-].[Cl-].[O-2].[O-2].[Ru+3].[Ru+3].[Ru+4]` [Ruthenium Red], the “Effect of inhibitor on ALAFAC antibiotic potentiation in MIC assay” value (Staphylococcus aureus) was “completely abolished”, the “Transmembrane proton gradient (intracellular pH)” value (NRS 384 Staphylococci [1]) was “did not fully inhibit” and the “Effect of inhibitor on ALAFAC potentiation of gentamicin and penicillin G” value (Streptococcus pneumoniae) was “completely abolished”. For the same molecule, the “Effect of inhibitor on ALAFAC potentiation of gentamicin and penicillin G” value (Streptococcus pneumoniae; listed as ruthenium red) was “significantly blocked”, the “Effect of inhibitor on ALAFAC-induced death” value (Streptococcus pneumoniae; lethal ALAFAC (12×MIC), ruthenium red 30 μM) was “significantly reduced” and the “Effect of inhibitor on ALAFAC-associated membrane depolarization” value (NRS 123 Staphylococci) was “completely abolished”. For the same molecule, the “Intracellular Ca2+ (45Ca2+ uptake)” value (NRS 384 Staphylococci [2]) was “almost completely blocked”.
